Source: US4508720A, “Amino derivatives of pyridazine, and compositions thereof for the central nervous system” (Sanofi, priority 1981, dated 1985)

Columns and labels:
[1] = Acute toxicity (mortality during 24 hours, i.p.); details: mouse, in vivo, ip
Procedure: (§1) The products to be studied were administered by the intraperitoneal route at increasing doses to batches of 10 mice. The mortality provoked by the products studied were noted during the 24 hours following administration of the product.
(§2) From the results obtained, the LD 50, i.e. the dose provoking the death of 50% of the animals studied, is determined for each of the products studied.
(§3) Three products of the prior art are given in this Table by way of comparison: […]

mice [2] = details: mouse, in vivo, ip
Procedure: as §1
During the same experiments, the convulsivant threshold dose of the product is also noted, i.e. the minimum dose for which a convulsivant activity begins to be shown.
as §3

[3] = test system: ptosis induced by reserpine; test: Antagonism of the ptosis induced by reserpine; format: in vivo, female mice CDI (Charles River); details: Mus musculus, ip, reserpine 2 mg/kg i.v. simultaneously, 1 hour
Procedure: This test, described by GOURET (Journal de Pharmacologie (Paris), 1973, 4 (1), 105-128), was made on the female mice CDI (Charles River), weighing 20±1 g. The reserpine causes a ptosis one hour after intravenous administration thereof; certain antidepressants oppose this ptosis. The following protocol was chosen: The substances to be studied were administered by the i.p. route. […] One hour after administration of reserpine, the number of animals not presenting ptosis is noted. This test was carried out on batches of 10 mice, the results are expressed in percentage of animals not presenting ptosis and are the average of at least two experiments. By way of comparison, the results obtained with the three products of the prior art, Minaprine, CM 30070 and CM 30071 have also been indicated.

despair reaction = test: Despair reaction (behavioral despair); format: in vivo, female mouse, CDI (Charles River); details: one hour before the test; for Behavioral Despair (change of immobility time): immobility between 2nd and 6th minute
Procedure: This test was carried out in the female mouse, CDI (Charles River), weighing 18 to 23 g, according to the method described by Porsolt (Archives Internationales de Pharmacodynamie, 1977, 229, 327-336). The principle of this test is as follows: when a mouse is placed in a narrow recipient, filled with water, it struggles, then, after 2 to 4 mins., it becomes still and floats on its stomach, its back rounded, its rear paws drawn up under its body and it makes only a few movements necessary for maintaining its head out of the water. This reaction is called the despair reaction. Certain psychotherapeutic agents, particularly the antidepressants, extend the time during which the mouse struggles. The following protocol was chosen: The products to be studied were administered by the i.p. route one hour before the test. For the test, the animals are placed in a narrow recipient (10×10×10 cm), filled with water, up to a height of 6 cm, the temperature of the water being 24° C.±2° C. […] Each substance was studied on a batch of 10 mice. The results are the average of at least two experiments.

mice [4] = test: Acute toxicity (mortality during 24 hours, i.p.); details: mouse, in vivo, ip, 1440 min
Procedure: as §1, §2, §3

[5] = in vivo; cited from earlier work
[6] = per os; cited from earlier work

| SMILES | LD50 at 24 h [1] | Convulsivant threshold dose (mice [2]) | LD50 at 24 h ([1]; mice, 24 hours) | ED50 [3] | also measured |
| --- | --- | --- | --- | --- | --- |
| NCCNc1cc(-c2ccccc2)cnn1 [SR 95086] | > 200 mg/kg | > 200 mg/kg | – | – | – |
| CNCCNc1nnc(-c2ccccc2)cc1C [SR 95029, 2-(2-Methylamino Ethylamino)4-Methyl 6-Phenyl Pyridazine] | – | 200 mg/kg | > 200 mg/kg | – | – |
| CCN(CC)CCNc1nnc(-c2ccccc2)cc1C [CM 30070, reference compound] | 80 mg/kg | 60 mg/kg | – | ~50 mg/kg | Behavioral Despair, result in words (despair reaction; 25 mg/kg i.p.): inactive |
| Cc1cc(-c2ccc(O)cc2)nnc1NCCN [SR 95073, 3-(2-Amino Ethylamino)4-Methyl 6-(4-Hydroxy Phenyl)Pyridazine] | – | > 200 mg/kg | > 200 mg/kg | – | – |
| Cc1cc(-c2ccccc2)nnc1NCCN [CM 30099, 3-(2-Amino Ethylamino)4-Methyl 6-Phenyl Pyridazine] | – | 200 mg/kg | > 200 mg/kg | 16 mg/kg | Behavioral Despair (change of immobility time) (despair reaction; 10 mg/kg i.p.): -50% |
| NCCNc1ccc(-c2ccccc2)nn1 [SR 95085] | > 200 mg/kg | > 200 mg/kg | – | – | – |
| NCCNc1nnccc1-c1ccccc1 [SR 95002] | ~150 mg/kg | 100 mg/kg | – | – | – |
| Cc1cc(-c2ccccc2)nnc1NCCCN [CM 30486, 3-(3-aminopropylamino)4-methyl 6-phenyl pyridazine] | – | > 200 mg/kg | > 200 mg/kg | ~10 mg/kg | Behavioral Despair (change of immobility time) (despair reaction; 10 mg/kg i.p.): -20% |
| Cc1cc(-c2ccccc2)nnc1NCCN(C)C [CM 30071, reference compound] | – | 100 mg/kg | – | ~50 mg/kg | LD50 (mice [4]): 118 (101-139) mg/kg; Behavioral Despair, result in words (despair reaction; 10 mg/kg i.p.): inactive |
| Cc1cc(-c2ccccc2)nnc1NCCCCN [CM 30487, 3-(4-aminobutylamino)4-methyl 6-phenyl pyridazine] | – | > 200 mg/kg | > 200 mg/kg | – | – |
| Cc1cc(-c2ccccc2)nnc1NCCN1CCOCC1 [Minaprine] | – | 35 mg/kg | – | 5 mg/kg | type of psychotherapeutic action [5]: "disinhibitory" activity; dose at which the product proves convulsivant [6]: higher than 100 mg/kg; Behavioral Despair (change of immobility time) (despair reaction; 10 mg/kg i.p.): -35% |
